Experimental data: the supplement of paper PMC10307832

Assays:
Assay in all cases: relative viability (nuclei count vs DMSO), 5 days (fraction); higher = more cells survive
LK-2 = test system: LK-2
Summary of the method: (§1)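 For relative viability, nuclei counts in treated wells were divided by those in vehicle wells. Lung cancer cell lines had been pin-tool dosed in 1536-well plates the day after seeding and cultured for 5 days, then fixed and stained in one step (final 0.05% Triton X-100, 1% formaldehyde, 1 ug/ml Hoechst) and imaged at 4×. Doses were one drug alone or a fixed anchor-drug dose plus five library-drug doses (not always all listed) in √10 steps, and values are duplicate-plate medians.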

NCI-H460 = test system: NCI-H460
Summary of the method: as §1

NCI-H322M = test system: NCI-H322M
Summary of the method: as §1

NCI-H727 = test system: NCI-H727
Summary of the method: as §1

NCI-H2023 = test system: NCI-H2023
Summary of the method: as §1

HCC-44 = test system: HCC-44
Summary of the method: as §1

NCI-H1651 = test system: NCI-H1651
Summary of the method: as §1

EKVX = test system: EKVX
Summary of the method: as §1

NCI-H838 = test system: NCI-H838
Summary of the method: as §1

LU99A = test system: LU99A
Summary of the method: as §1

BEN = test system: BEN
Summary of the method: as §1

NCI-H358 = test system: NCI-H358
Summary of the method: as §1

HCC-15 = test system: HCC-15
Summary of the method: as §1

COR-L 105 = test system: COR-L 105
Summary of the method: as §1

201T = test system: 201T
Summary of the method: as §1

PC-3 [JPC-3] = test system: PC-3 [JPC-3]
Summary of the method: as §1

SW 900 = test system: SW 900
Summary of the method: as §1

EMC-BAC-2 = test system: EMC-BAC-2
Summary of the method: as §1

NCI-H522 = test system: NCI-H522
Summary of the method: as §1

CAL-12T = test system: CAL-12T
Summary of the method: as §1

NCI-H520 = test system: NCI-H520
Summary of the method: as §1

CN1CCN(CCOc2cc(OC3CCOCC3)c3c(Nc4c(Cl)ccc5c4OCO5)ncnc3c2)CC1 [Saracatinib] + CC(=O)Nc1cccc(-n2c(=O)n(C3CC3)c(=O)c3c(Nc4ccc(I)cc4F)n(C)c(=O)c(C)c32)c1 [Trametinib] (partner 0.02 µM)
relative viability (LK-2; first compound 0.02 µM): 0.725 | relative viability (LK-2; first compound 0.2 µM): 0.736 | relative viability (LK-2; first compound 0.6325 µM): 0.722 | relative viability (LK-2; first compound 2 µM): 0.614 | relative viability (NCI-H460; first compound 0.02 µM): 0.215 | relative viability (NCI-H460; first compound 0.2 µM): 0.139 | relative viability (NCI-H460; first compound 0.6325 µM): 0.129 | relative viability (NCI-H460; first compound 2 µM): 0.056 | relative viability (NCI-H322M; first compound 0.02 µM): 0.529 | relative viability (NCI-H322M; first compound 0.2 µM): 0.449 | relative viability (NCI-H322M; first compound 0.6325 µM): 0.582 | relative viability (NCI-H322M; first compound 2 µM): 0.357 | relative viability (NCI-H727; first compound 0.02 µM): 0.369 | relative viability (NCI-H727; first compound 0.2 µM): 0.402 | relative viability (NCI-H727; first compound 0.6325 µM): 0.379 | relative viability (NCI-H727; first compound 2 µM): 0.308 | relative viability (NCI-H2023; first compound 0.02 µM): 0.52 | relative viability (NCI-H2023; first compound 0.2 µM): 0.269 | relative viability (NCI-H2023; first compound 0.6325 µM): 0.487 | relative viability (NCI-H2023; first compound 2 µM): 0.348 | relative viability (HCC-44; first compound 0.02 µM): 1.05 | relative viability (HCC-44; first compound 0.2 µM): 1.02 | relative viability (HCC-44; first compound 0.6325 µM): 1.18 | relative viability (HCC-44; first compound 2 µM): 1.21 | relative viability (NCI-H1651; first compound 0.02 µM): 0.837 | relative viability (NCI-H1651; first compound 0.2 µM): 0.593 | relative viability (NCI-H1651; first compound 0.6325 µM): 0.907 | relative viability (NCI-H1651; first compound 2 µM): 0.877 | relative viability (EKVX; first compound 0.02 µM): 0.274 | relative viability (EKVX; first compound 0.6325 µM): 0.37 | relative viability (EKVX; first compound 2 µM): 0.163 | relative viability (NCI-H838; first compound 0.02 µM): 0.54 | relative viability (NCI-H838; first compound 0.2 µM): 0.497 | relative viability (NCI-H838; first compound 0.6325 µM): 0.47 | relative viability (NCI-H838; first compound 2 µM): 0.425 | relative viability (LU99A; first compound 0.02 µM): 0.532 | relative viability (LU99A; first compound 0.2 µM): 0.473 | relative viability (LU99A; first compound 0.6325 µM): 0.565 | relative viability (LU99A; first compound 2 µM): 0.459 | relative viability (BEN; first compound 0.02 µM): 1.04 | relative viability (BEN; first compound 0.2 µM): 1.15 | relative viability (BEN; first compound 0.6325 µM): 1.17 | relative viability (BEN; first compound 2 µM): 1.13 | relative viability (NCI-H358; first compound 0.02 µM): 0.156 | relative viability (NCI-H358; first compound 0.2 µM): 0.131 | relative viability (NCI-H358; first compound 0.6325 µM): 0.105 | relative viability (NCI-H358; first compound 2 µM): 0.0979 | relative viability (HCC-15; first compound 0.02 µM): 0.44 | relative viability (HCC-15; first compound 0.2 µM): 0.371 | relative viability (HCC-15; first compound 0.6325 µM): 0.455 | relative viability (HCC-15; first compound 2 µM): 0.388 | relative viability (COR-L 105; first compound 0.02 µM): 0.486 | relative viability (COR-L 105; first compound 0.2 µM): 0.437 | relative viability (COR-L 105; first compound 0.6325 µM): 0.37 | relative viability (COR-L 105; first compound 2 µM): 0.317 | relative viability (201T; first compound 0.02 µM): 0.726 | relative viability (201T; first compound 0.2 µM): 0.685 | relative viability (201T; first compound 0.6325 µM): 0.65 | relative viability (201T; first compound 2 µM): 0.615 | relative viability (PC-3 [JPC-3]; first compound 0.02 µM): 0.758 | relative viability (PC-3 [JPC-3]; first compound 0.2 µM): 0.587 | relative viability (PC-3 [JPC-3]; first compound 0.6325 µM): 0.534 | relative viability (PC-3 [JPC-3]; first compound 2 µM): 0.494 | relative viability (SW 900; first compound 0.02 µM): 0.624 | relative viability (SW 900; first compound 0.2 µM): 0.443 | relative viability (SW 900; first compound 0.6325 µM): 0.647 | relative viability (SW 900; first compound 2 µM): 0.529 | relative viability (EMC-BAC-2; first compound 0.02 µM): 0.896 | relative viability (EMC-BAC-2; first compound 0.2 µM): 0.97 | relative viability (EMC-BAC-2; first compound 0.6325 µM): 1.11 | relative viability (EMC-BAC-2; first compound 2 µM): 0.901 | relative viability (NCI-H522; first compound 0.02 µM): 0.708 | relative viability (NCI-H522; first compound 0.2 µM): 0.745 | relative viability (NCI-H522; first compound 0.6325 µM): 0.788 | relative viability (NCI-H522; first compound 2 µM): 0.536 | relative viability (CAL-12T; first compound 0.02 µM): 0.394 | relative viability (CAL-12T; first compound 0.2 µM): 0.373 | relative viability (CAL-12T; first compound 0.6325 µM): 0.475 | relative viability (CAL-12T; first compound 2 µM): 0.323 | relative viability (NCI-H520; first compound 0.02 µM): 0.703 | relative viability (NCI-H520; first compound 0.2 µM): 0.53 | relative viability (NCI-H520; first compound 0.6325 µM): 0.586 | relative viability (NCI-H520; first compound 2 µM): 0.273
